Measurements: EP0384722A1, “Chemical compositions” (PITMAN-MOORE LIMITED, priority 1989, dated 1990)
Like-named read-outs stand apart in the source and are kept apart here.

Columns and labels:
[1] = Comparison of bioavailability of Compound A and Trimethoprim (TMP) administered by i/v injection, cats; format: in vivo; conditions: serum, i/v injection at 2 mg/kg; for Est.t1/2 / half-life: cats; for half-life / concentration at 0 h / concentration at 1 h / concentration at 3 h / concentration at 5 h / concentration at 7 h / concentration at 24 h: female, cat, intravenous; for half-life: read-out: Est.t1/2 (converted); for concentration at 0 h / concentration at 1 h / concentration at 3 h / concentration at 5 h / concentration at 7 h / concentration at 24 h: 2 mg/kg; for concentration at 0 h: 0 hours post inj.; for concentration at 1 h: 1 hours post inj.; for concentration at 3 h: 3 hours post inj.; for concentration at 5 h: 5 hours post inj.; for concentration at 7 h: 7 hours post inj.; for concentration at 24 h: 24 hours post inj.
Procedure: Two young adult female cats, bodyweight around 3 kg, were given i/v injections at 2 mg/kg of TMP or Compound A, using 3 mg/base ml aqueous solutions.

[2] = Comparison of bioavailability of Compound A and Trimethoprim (TMP) administered by i/v injection, dogs; format: in vivo; conditions: i/v injection at 2 mg/kg; for half-life: both sexes, dog, read-out: Est.t1/2 (converted); for half-life / concentration at 0 h / concentration at 1 h / concentration at 3 h / concentration at 5 h / concentration at 7 h / concentration at 24 h / concentration at 30 h / concentration at 48 h: beagle, intravenous, serum; for concentration at 0 h: 0 hours post inj.; for concentration at 1 h: 1 hours post inj.; for concentration at 3 h: 3 hours post inj.; for concentration at 5 h: 5 hours post inj.; for concentration at 7 h: 7 hours post inj.; for concentration at 24 h: 24 hours post inj.; for concentration at 30 h: 30 hours post inj.; for concentration at 48 h: 48 hours post inj.
Procedure: One male beagle dog, 13.5 kg and one female beagle, 11.1kg, both aged about 18 months, received i/v injections (cephalic vein) of the test compounds at 2mg base/kg, using 15mg base /ml aqueous solutions.

[3] = cat 3, read-out: Serum conc. of Compound A
[4] = cat 4, read-out: Serum conc. of Compound A
[5] = female, dog F, read-out: Serum conc. of Compound A
[6] = male, dog M, read-out: Serum conc. of Compound A
[7] = cat 1, read-out: Serum conc. of TMP
[8] = cat 2, read-out: Serum conc. of TMP
[9] = female, dog F, read-out: Serum conc. of TMP
[10] = male, dog M, read-out: Serum conc. of TMP

## Cc1cc(Cc2cnc(N)nc2N)c2cccnc2c1N(C)C [Compound A, 2,4-diamino-5-(8-dimethylamino-7-methyl-5-quinolylmethyl) pyrimidine]
[1]
  Est.t1/2: 2.4 h
  half-life: 2.4 h
[1]; [3]
  concentration at 0 h: 0 ng/mL
  concentration at 1 h: 320 ng/mL
  concentration at 3 h: 160 ng/mL
  concentration at 5 h: 100 ng/mL
  concentration at 7 h: 72 ng/mL
  concentration at 24 h: 0 ng/mL
[1]; [4]
  concentration at 0 h: 0 ng/mL
  concentration at 1 h: 310 ng/mL
  concentration at 3 h: 140 ng/mL
  concentration at 5 h: 86 ng/mL
  concentration at 24 h: 0 ng/mL
[2]; dogs
  half-life: 15 h
  half-life in comparison with TMP: greatly extended half-life in comparison with TMP
[2]; [5]
  concentration at 0 h: 0 ng/mL
  concentration at 1 h: 410 ng/mL
  concentration at 3 h: 340 ng/mL
  concentration at 5 h: 300 ng/mL
  concentration at 7 h: 290 ng/mL
  concentration at 24 h: 124 ng/mL
  concentration at 30 h: 100 ng/mL
  concentration at 48 h: 46 ng/mL
[2]; [6]
  concentration at 0 h: 0 ng/mL
  concentration at 1 h: 240 ng/mL
  concentration at 3 h: 270 ng/mL
  concentration at 5 h: 260 ng/mL
  concentration at 7 h: 250 ng/mL
  concentration at 24 h: 110 ng/mL
  concentration at 48 h: 39 ng/mL

## COc1cc(Cc2cnc(N)nc2N)cc(OC)c1OC [TMP, trimethoprim]
[1]
  Est.t1/2: 0.75 h
  half-life: 0.75 h
[1]; [7]
  concentration at 0 h: 0 ng/mL
  concentration at 1 h: 460 ng/mL
  concentration at 3 h: 60 ng/mL
  concentration at 5 h: 0 ng/mL
  concentration at 7 h: 0 ng/mL
  concentration at 24 h: 0 ng/mL
[1]; [8]
  concentration at 0 h: 0 ng/mL
  concentration at 1 h: 440 ng/mL
  concentration at 3 h: 84 ng/mL
  concentration at 5 h: 0 ng/mL
  concentration at 7 h: 0 ng/mL
  concentration at 24 h: 0 ng/mL
[2]; dogs
  half-life: 2.6 h
[2]; [9]
  concentration at 0 h: 0 ng/mL
  concentration at 1 h: 1200 ng/mL
  concentration at 3 h: 740 ng/mL
  concentration at 5 h: 310 ng/mL
  concentration at 7 h: 210 ng/mL
  concentration at 24 h: 0 ng/mL
  concentration at 30 h: 0 ng/mL
  concentration at 48 h: 0 ng/mL
[2]; [10]
  concentration at 0 h: 0 ng/mL
  concentration at 1 h: 1100 ng/mL
  concentration at 3 h: 800 ng/mL
  concentration at 5 h: 400 ng/mL
  concentration at 7 h: 260 ng/mL
  concentration at 24 h: 0 ng/mL
  concentration at 30 h: 0 ng/mL
  concentration at 48 h: 0 ng/mL
